Among the data in the OligoGym collection are 3 h FOB score values, retold here.

HELM strings list units from the 5' end as sugar, base in round brackets, then linkage (d deoxyribose, r ribose, m 2'-O-methyl, p phosphodiester). Strings are as the collection lists them; they lack the last nucleoside at the 3' end of the tested compound. [moe] = 2'-O-(2-methoxyethyl) (MOE); [sp] = phosphorothioate linkage; [m5C] = 5-methylcytosine

The target of this data set is SCN2A. Put plainly: mouse, dose not given. The note with it: ASO.
The substance “RNA1{[moe]([m5C])[sp].[moe](A)p.[moe](T)p.[moe](G)p.[moe]([m5C])p.d(A)[sp].d(T)[sp].d(A)[sp].d(A)[sp].d(T)[sp].d([m5C])[sp].d([m5C])[sp].d([m5C])[sp].d(A)[sp].d(T)[sp].[moe](T)p.[moe](A)p.[moe](T)[sp].[moe](A)}$$$$ (last 3' nucleoside missing)” registered a 3 h FOB score of 0 score 0-7.

Turning to “RNA1{[moe]([m5C])[sp].[moe](A)p.[moe](T)p.[moe](G)p.d(T)[sp].d(A)[sp].d(A)[sp].d(T)[sp].d([m5C])[sp].d(A)[sp].d([m5C])[sp].d(T)[sp].d(T)[sp].d(T)[sp].[moe]([m5C])p.[moe](A)p.[moe](T)p.[moe]([m5C])[sp].[moe]([m5C])}$$$$ (last 3' nucleoside missing)”, the 3 h FOB score came to 0 score 0-7.

The substance “RNA1{[moe]([m5C])[sp].[moe](A)p.[moe](T)p.[moe](G)p.d(T)[sp].d(A)[sp].d(A)[sp].d([m5C])[sp].d([m5C])[sp].d(T)[sp].d(T)[sp].d(T)[sp].d(A)[sp].d(T)[sp].[moe](A)p.[moe]([m5C])p.[moe](A)p.[moe](T)[sp].[moe](T)}$$$$ (last 3' nucleoside missing)” had a 3 h FOB score of 0 score 0-7.

“RNA1{[moe]([m5C])[sp].[moe](A)p.[moe](T)p.[moe](G)p.d([m5C])[sp].d(A)[sp].d(T)[sp].d(A)[sp].d(A)[sp].d(T)[sp].d([m5C])[sp].d([m5C])[sp].d([m5C])[sp].d(A)[sp].[moe](T)p.[moe](T)p.[moe](A)p.[moe](T)[sp].[moe](A)}$$$$ (last 3' nucleoside missing)” gave a 3 h FOB score of 0 score 0-7.

In turn, “RNA1{[moe]([m5C])[sp].[moe](A)p.[moe](T)p.[moe](T)p.[moe](T)p.[moe]([m5C])p.d(T)[sp].d(A)[sp].d(T)[sp].d(A)[sp].d(A)[sp].d([m5C])[sp].d(T)[sp].d([m5C])[sp].d(A)[sp].d(G)[sp].[moe]([m5C])p.[moe](A)[sp].[moe](A)}$$$$ (last 3' nucleoside missing)” displayed a 3 h FOB score of 0 score 0-7.

“RNA1{[moe]([m5C])[sp].[moe](A)p.[moe](T)p.[moe](T)p.[moe](T)p.d([m5C])[sp].d(T)[sp].d(A)[sp].d(T)[sp].d(A)[sp].d(A)[sp].d([m5C])[sp].d(T)[sp].d([m5C])[sp].d(A)[sp].[moe](G)p.[moe]([m5C])p.[moe](A)[sp].[moe](A)}$$$$ (last 3' nucleoside missing)” showed a 3 h FOB score of 0 score 0-7.

“RNA1{[moe]([m5C])[sp].[moe](A)p.[moe](T)p.[moe](T)p.d(T)[sp].d([m5C])[sp].d(T)[sp].d(A)[sp].d(T)[sp].d(A)[sp].d(A)[sp].d([m5C])[sp].d(T)[sp].d([m5C])[sp].[moe](A)p.[moe](G)p.[moe]([m5C])p.[moe](A)[sp].[moe](A)}$$$$ (last 3' nucleoside missing)” showed a 3 h FOB score of 0 score 0-7.

For the substance “RNA1{[moe]([m5C])[sp].[moe](A)p.[moe]([m5C])p.[moe](G)p.[moe](A)p.[moe]([m5C])p.d(A)[sp].d(T)[sp].d(A)[sp].d(T)[sp].d(T)[sp].d(T)[sp].d(T)[sp].d(T)[sp].d([m5C])[sp].d(T)[sp].[moe](A)p.[moe]([m5C])[sp].[moe](A)}$$$$ (last 3' nucleoside missing)”, the 3 h FOB score turned out to be 0.5 score 0-7.

Turning to “RNA1{[moe]([m5C])[sp].[moe](A)p.[moe]([m5C])p.[moe](G)p.[moe](A)p.d([m5C])[sp].d(A)[sp].d(T)[sp].d(A)[sp].d(T)[sp].d(T)[sp].d(T)[sp].d(T)[sp].d(T)[sp].d([m5C])[sp].[moe](T)p.[moe](A)p.[moe]([m5C])[sp].[moe](A)}$$$$ (last 3' nucleoside missing)”, the 3 h FOB score was determined as 0 score 0-7.

Take “RNA1{[moe]([m5C])[sp].[moe](A)p.[moe]([m5C])p.[moe](G)p.[moe]([m5C])p.[moe](T)p.d(T)[sp].d(A)[sp].d([m5C])[sp].d(A)[sp].d(T)[sp].d([m5C])[sp].d(A)[sp].d(A)[sp].d(A)[sp].d([m5C])[sp].[moe](A)p.[moe](T)[sp].[moe]([m5C])}$$$$ (last 3' nucleoside missing)”: the 3 h FOB score came out at 0 score 0-7.

With “RNA1{[moe]([m5C])[sp].[moe](A)p.[moe]([m5C])p.[moe](G)p.[moe]([m5C])p.d(T)[sp].d(T)[sp].d(A)[sp].d([m5C])[sp].d(A)[sp].d(T)[sp].d([m5C])[sp].d(A)[sp].d(A)[sp].d(A)[sp].[moe]([m5C])p.[moe](A)p.[moe](T)[sp].[moe]([m5C])}$$$$ (last 3' nucleoside missing)”, the 3 h FOB score amounted to 0 score 0-7.

As for “RNA1{[moe]([m5C])[sp].[moe](A)p.[moe]([m5C])p.[moe](G)p.d(A)[sp].d([m5C])[sp].d(A)[sp].d(T)[sp].d(A)[sp].d(T)[sp].d(T)[sp].d(T)[sp].d(T)[sp].d(T)[sp].[moe]([m5C])p.[moe](T)p.[moe](A)p.[moe]([m5C])[sp].[moe](A)}$$$$ (last 3' nucleoside missing)”, the 3 h FOB score was determined as 0 score 0-7.

“RNA1{[moe]([m5C])[sp].[moe](A)p.[moe]([m5C])p.[moe](G)p.d([m5C])[sp].d(T)[sp].d(T)[sp].d(A)[sp].d([m5C])[sp].d(A)[sp].d(T)[sp].d([m5C])[sp].d(A)[sp].d(A)[sp].[moe](A)p.[moe]([m5C])p.[moe](A)p.[moe](T)[sp].[moe]([m5C])}$$$$ (last 3' nucleoside missing)” yielded a 3 h FOB score of 0 score 0-7.

On to “RNA1{[moe]([m5C])[sp].[moe](G)p.[moe](A)p.[moe](A)p.[moe](T)p.[moe](T)p.d([m5C])[sp].d(T)[sp].d(A)[sp].d(T)[sp].d(T)[sp].d(T)[sp].d(T)[sp].d(A)[sp].d(T)[sp].d(A)[sp].[moe](A)p.[moe](A)[sp].[moe](T)}$$$$ (last 3' nucleoside missing)”, for which the 3 h FOB score worked out at 2.33 score 0-7.

“RNA1{[moe]([m5C])[sp].[moe](G)p.[moe](A)p.[moe](A)p.[moe](T)p.d(T)[sp].d([m5C])[sp].d(T)[sp].d(A)[sp].d(T)[sp].d(T)[sp].d(T)[sp].d(T)[sp].d(A)[sp].d(T)[sp].[moe](A)p.[moe](A)p.[moe](A)[sp].[moe](T)}$$$$ (last 3' nucleoside missing)” returned a 3 h FOB score of 1.67 score 0-7.

With “RNA1{[moe]([m5C])[sp].[moe](G)p.[moe](A)p.[moe](A)p.d(T)[sp].d(T)[sp].d([m5C])[sp].d(T)[sp].d(A)[sp].d(T)[sp].d(T)[sp].d(T)[sp].d(T)[sp].d(A)[sp].[moe](T)p.[moe](A)p.[moe](A)p.[moe](A)[sp].[moe](T)}$$$$ (last 3' nucleoside missing)”, the 3 h FOB score is 1 score 0-7.

Consider “RNA1{[moe]([m5C])[sp].[moe](G)p.[moe](T)p.[moe]([m5C])p.[moe](T)p.d([m5C])[sp].d(T)[sp].d(T)[sp].d(T)[sp].d([m5C])[sp].d(T)[sp].d(T)[sp].d(A)[sp].d(T)[sp].d(T)[sp].[moe](T)p.[moe]([m5C])p.[moe](T)[sp].[moe](G)}$$$$ (last 3' nucleoside missing)”, for which the 3 h FOB score amounted to 1 score 0-7.

“RNA1{[moe]([m5C])[sp].[moe](G)p.[moe](T)p.[moe]([m5C])p.d(T)[sp].d([m5C])[sp].d(T)[sp].d(T)[sp].d(T)[sp].d([m5C])[sp].d(T)[sp].d(T)[sp].d(A)[sp].d(T)[sp].[moe](T)p.[moe](T)p.[moe]([m5C])p.[moe](T)[sp].[moe](G)}$$$$ (last 3' nucleoside missing)” registered a 3 h FOB score of 1 score 0-7.

For the substance “RNA1{[moe]([m5C])[sp].[moe](T)p.[moe](A)p.[moe](T)[sp].d(T)[sp].d(T)[sp].d(T)[sp].d(A)[sp].d(T)[sp].d(A)[sp].d(A)[sp].d(A)[sp].[moe](T)p.[moe](G)p.[moe]([m5C])p.[moe]([m5C])[sp].[moe](G)}$$$$ (last 3' nucleoside missing)”, the 3 h FOB score stood at 0 score 0-7.

The substance “RNA1{[moe]([m5C])[sp].[moe](T)p.[moe](A)p.[moe](T)p.[moe](T)[sp].d(T)[sp].d(T)[sp].d(A)[sp].d(T)[sp].d(A)[sp].d(A)[sp].d(A)[sp].d(T)[sp].[moe](G)p.[moe]([m5C])p.[moe]([m5C])[sp].[moe](G)}$$$$ (last 3' nucleoside missing)” came in with a 3 h FOB score of 0 score 0-7.

As for “RNA1{[moe]([m5C])[sp].[moe](T)p.[moe](G)p.[moe](G)p.[moe](A)p.d([m5C])[sp].d([m5C])[sp].d(G)[sp].d(T)[sp].d([m5C])[sp].d(T)[sp].d([m5C])[sp].d(T)[sp].d(T)[sp].d(T)[sp].[moe]([m5C])p.[moe](T)p.[moe](T)[sp].[moe](A)}$$$$ (last 3' nucleoside missing)”, the 3 h FOB score worked out at 1 score 0-7.

With “RNA1{[moe]([m5C])[sp].[moe](T)p.[moe](G)p.[moe](G)p.[moe]([m5C])p.d(T)[sp].d(A)[sp].d(T)[sp].d(A)[sp].d([m5C])[sp].d(T)[sp].d([m5C])[sp].d(A)[sp].d(T)[sp].d(T)[sp].[moe](G)p.[moe]([m5C])p.[moe](T)[sp].[moe]([m5C])}$$$$ (last 3' nucleoside missing)”, the 3 h FOB score worked out at 0.67 score 0-7.

The substance “RNA1{[moe]([m5C])[sp].[moe](T)p.[moe](G)p.[moe](G)p.d(A)[sp].d([m5C])[sp].d([m5C])[sp].d(G)[sp].d(T)[sp].d([m5C])[sp].d(T)[sp].d([m5C])[sp].d(T)[sp].d(T)[sp].[moe](T)p.[moe]([m5C])p.[moe](T)p.[moe](T)[sp].[moe](A)}$$$$ (last 3' nucleoside missing)” registered a 3 h FOB score of 1 score 0-7.

Take “RNA1{[moe]([m5C])[sp].[moe](T)p.[moe](G)p.[moe](T)p.[moe](T)p.d(T)[sp].d(G)[sp].d(G)[sp].d(G)[sp].d(T)[sp].d([m5C])[sp].d(T)[sp].d([m5C])[sp].d(T)[sp].d(T)[sp].[moe](A)p.[moe](G)p.[moe]([m5C])[sp].[moe](T)}$$$$ (last 3' nucleoside missing)”: the 3 h FOB score is 2.67 score 0-7.

“RNA1{[moe]([m5C])[sp].[moe](T)p.[moe](G)p.[moe]([m5C])[sp].d(A)[sp].d(T)[sp].d(G)[sp].d(T)[sp].d(A)[sp].d(A)[sp].d([m5C])[sp].d([m5C])[sp].[moe](T)p.[moe](T)p.[moe](T)p.[moe](A)[sp].[moe](T)}$$$$ (last 3' nucleoside missing)” gave a 3 h FOB score of 1 score 0-7.
